Reference: ChEMBL document CHEMBL1201862, “PubChem BioAssay data set” (2004)
The source made the active and inactive calls. Rule as the data show it, for most assays here: active = IC50 of 10 µM or less and inactive = more.

Columns and labels:
Assay type in all cases: functional
[1] = target: Mu-type opioid receptor (Homo sapiens, UniProt P35372); assay: SAR Analysis of Antagonists of the MOR Receptor using an Image-Based Assay - Set 3. [Related pubchem assays (depositor defined):AID1777, AID1785, AID1786, AID1966, AID2133, AID2136, AID2284, AID2285, AID2420]
Chain of Mu-type opioid receptor (P35372 whole entry): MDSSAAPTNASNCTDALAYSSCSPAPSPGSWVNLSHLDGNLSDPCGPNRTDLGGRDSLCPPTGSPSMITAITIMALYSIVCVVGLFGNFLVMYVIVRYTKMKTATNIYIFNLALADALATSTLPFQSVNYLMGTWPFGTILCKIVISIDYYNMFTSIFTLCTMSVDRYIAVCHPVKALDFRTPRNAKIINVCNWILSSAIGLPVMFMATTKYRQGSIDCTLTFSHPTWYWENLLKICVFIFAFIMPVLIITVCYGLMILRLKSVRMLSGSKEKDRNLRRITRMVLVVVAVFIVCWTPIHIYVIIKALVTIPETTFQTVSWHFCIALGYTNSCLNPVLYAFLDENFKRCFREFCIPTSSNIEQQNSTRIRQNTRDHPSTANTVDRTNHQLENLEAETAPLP

[2] = target: T1, Kappa-type opioid receptor (Homo sapiens, UniProt P41145); assay: SAR analysis of small molecule antagonists of the kappa opioid receptor via a luminescent beta-arrestin assay - Set 3. [Related pubchem assays (depositor defined):AID1777, AID1778, AID1785, AID1786, AID1966, AID2133, AID2136, AID2285, AID2495]
T1 sequence (P41145 whole entry): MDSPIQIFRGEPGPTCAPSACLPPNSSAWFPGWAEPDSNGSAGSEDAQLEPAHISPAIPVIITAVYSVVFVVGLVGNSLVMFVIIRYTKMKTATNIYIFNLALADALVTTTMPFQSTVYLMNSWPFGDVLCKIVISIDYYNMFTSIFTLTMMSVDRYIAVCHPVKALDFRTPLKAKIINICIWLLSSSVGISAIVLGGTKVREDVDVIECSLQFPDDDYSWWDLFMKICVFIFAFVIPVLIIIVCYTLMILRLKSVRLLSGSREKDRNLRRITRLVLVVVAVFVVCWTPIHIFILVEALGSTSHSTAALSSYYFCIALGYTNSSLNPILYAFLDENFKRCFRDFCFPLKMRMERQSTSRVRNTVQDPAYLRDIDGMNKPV

[3] = target: Delta-type opioid receptor (Homo sapiens, UniProt P41143); assay: SAR Analysis of Antagonists of the DOR Receptor using an Image-Based Assay - Set 3. [Related pubchem assays (depositor defined):AID1777, AID1785];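 also: U2OS cells expressing DOR1 and beta-arrestin GFP stimulated with 100 nM SNC80; imaging of GFP-tagged beta-arrestin moving into spots after receptor activation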
Chain of Delta-type opioid receptor (P41143 whole entry): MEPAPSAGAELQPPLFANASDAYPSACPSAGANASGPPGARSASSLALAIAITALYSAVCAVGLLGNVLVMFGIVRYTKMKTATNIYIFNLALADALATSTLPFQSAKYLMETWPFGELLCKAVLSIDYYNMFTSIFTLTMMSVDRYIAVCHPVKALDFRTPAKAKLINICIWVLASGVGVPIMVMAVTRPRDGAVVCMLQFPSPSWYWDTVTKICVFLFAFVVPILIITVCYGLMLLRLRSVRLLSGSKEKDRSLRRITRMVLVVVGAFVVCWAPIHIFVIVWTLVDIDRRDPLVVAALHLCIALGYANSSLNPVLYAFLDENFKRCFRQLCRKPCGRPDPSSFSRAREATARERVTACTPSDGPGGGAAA

[4] = target: T1, Kappa-type opioid receptor; assay: SAR analysis of Antagonists of the Kappa Opioid Receptor (KOR) using an Image-Based Assay - Set 3. [Related pubchem assays (depositor defined):AID1777, AID1785]

IC50 [1]: > 32 µM (inactive) | IC50 [2]: 3.75 µM (active) | IC50 [3]: > 32 µM (inactive) | IC50 [4]: 0.749 µM (active)
SMILES: CCc1ccc(S(=O)(=O)NCc2ccc(C(=O)NCCN(C)[C@@H](C)c3ccccc3)cc2)cc1
